# Assay results as given in patent EP0373216A1, “CEPHALOSPORIN COMPOUNDS OR THEIR SALTS, PROCESS FOR THEIR PREPARATION, AND PARMACEUTICAL COMPOSITIONS” (TEIJIN LIMITED, priority 1987, dated 1988).
# Tests used:
# Assay in all cases: In vitro antibacterial activity, agar disc dilution method
# Type in all cases: cell-based
# S. aureus Terajima = settings: Staphylococcus aureus; S. aureus Terajima; Mueller Hinton agar, 10^6/ml, 37°C for 16 hours; read-out: minimum growth inhibitory concentration (MIC)
# Procedure: (§1) An in vitro antibacterial activity was measured by an agar disc dilution method.
# (§2) Varied test bacteria were cultivated overnight in triptophane-soybroth. A Mueller Hinton agar containing the compound of this invention in varied concentrations was streaked with one platinum loopful of each of the bacteria (number of living cells 10^6/ml).
# S. enteritidis G14 = settings: Salmonella enterica; S. enteritidis G14; Mueller Hinton agar, 10^6/ml, 37°C for 16 hours; read-out: minimum growth inhibitory concentration (MIC)
# Procedure: as §1, §2
# P. aeruginosa NCTC 1049 = settings: Pseudomonas aeruginosa, NCTC1049; P. aeruginosa NCTC 1049; Mueller Hinton agar, 10^6/ml, 37°C for 16 hours; read-out: minimum growth inhibitory concentration (MIC)
# Procedure: as §1, §2
# K. pneumoniae PC I 602 = settings: Klebsiella pneumoniae, PCI602; K. pneumoniae PC I 602; Mueller Hinton agar, 10^6/ml, 37°C for 16 hours; read-out: minimum growth inhibitory concentration (MIC)
# Procedure: as §1, §2
# P. vulgalis OX-19 = settings: P. vulgalis OX-19; Mueller Hinton agar, 10^6/ml, 37°C for 16 hours; read-out: minimum growth inhibitory concentration (MIC)
# Procedure: as §1, §2
# P. rettgeric IFO3850 = settings: P. rettgeric IFO3850; Mueller Hinton agar, 10^6/ml, 37°C for 16 hours; read-out: minimum growth inhibitory concentration (MIC)
# Procedure: as §1, §2
# S. marcescens I AM 1184 = settings: Serratia marcescens, IAM1184; S. marcescens I AM 1184; Mueller Hinton agar, 10^6/ml, 37°C for 16 hours; read-out: minimum growth inhibitory concentration (MIC)
# Procedure: as §1, §2
# S. pyogenes Cook = settings: Streptococcus pyogenes; S. pyogenes Cook; Mueller Hinton agar, 10^6/ml, 37°C for 16 hours; read-out: minimum growth inhibitory concentration (MIC)
# Procedure: as §1, §2
# E. cloacae 963 = settings: Enterobacter cloacae; E. cloacae 963; Mueller Hinton agar, 10^6/ml, 37°C for 16 hours; read-out: minimum growth inhibitory concentration (MIC)
# Procedure: as §1, §2
# S. typhic 901 = settings: Mueller Hinton agar, 10^6/ml, 37°C for 16 hours, read-out: minimum growth inhibitory concentration (MIC)
# Procedure: as §1, §2
# P. morganii IFO 3445 = settings: Morganella morganii, IFO3445; P. morganii IFO 3445; Mueller Hinton agar, 10^6/ml, 37°C for 16 hours; read-out: minimum growth inhibitory concentration (MIC)
# Procedure: as §1, §2
# E. coli K12C600 = settings: Escherichia coli; E. coli K12C600; Mueller Hinton agar, 10^6/ml, 37°C for 16 hours; read-out: minimum growth inhibitory concentration (MIC)
# Procedure: as §1, §2
# B. subtilis ATCC 6633 = settings: Bacillus subtilis, ATCC6633; B. subtilis ATCC 6633; Mueller Hinton agar, 10^6/ml, 37°C for 16 hours; read-out: minimum growth inhibitory concentration (MIC)
# Procedure: as §1, §2
# M. euteus ATCC 9341 = settings: M. euteus ATCC 9341; Mueller Hinton agar, 10^6/ml, 37°C for 16 hours; read-out: minimum growth inhibitory concentration (MIC)
# Procedure: as §1, §2
Structure (SMILES),MIC (S. aureus Terajima),MIC (S. enteritidis G14),MIC (P. aeruginosa NCTC 1049),MIC (K. pneumoniae PC I 602),MIC (P. vulgalis OX-19),MIC (P. rettgeric IFO3850),MIC (S. marcescens I AM 1184),MIC (S. pyogenes Cook),MIC (E. cloacae 963),MIC (S. typhic 901),MIC (P. morganii IFO 3445),MIC (E. coli K12C600),MIC (B. subtilis ATCC 6633),MIC (M. euteus ATCC 9341)
"Nc1nc(/C(=N/Oc2ccc(-c3ccccc3)cc2)C(=O)N[C@@H]2C(=O)N3C(C(=O)[O-])=C(C[n+]4ccc5cc(O)c(O)cc5c4)CS[C@H]23)cs1 [Compound IV, (6R,7R)-7-[(Z)-2-(2-amino-1,3-thiazol-4-yl)-2-(p-phenylphenoxy)iminoacetamide]-3-(6,7-dihydroxy-2-isoquinolinium)methyl-3-cephem-4-carboxylate]",1.6 µg/mL,0.02 µg/mL,0.8 µg/mL,0.02 µg/mL,< 0.01 µg/mL,< 0.01 µg/mL,< 0.01 µg/mL,0.4 µg/mL,< 0.01 µg/mL,< 0.01 µg/mL,< 0.01 µg/mL,0.02 µg/mL,1.6 µg/mL,0.8 µg/mL
"CC(=O)Oc1cc2cc[n+](CC3=C(C(=O)[O-])N4C(=O)[C@@H](NC(=O)/C(=N\Oc5ccccc5)c5csc(N)n5)[C@H]4SC3)cc2cc1OC(C)=O [Compound IX, (6R,7R)-7-[(Z)-2-(2-amino-1,3-thiazol-4-yl)-2-phenoxyiminoacetamide]-3-(6,7-diacetoxy-2-isoquinolinium)methyl-3-cephem-4-carboxylate]",1.6 µg/mL,0.02 µg/mL,0.1 µg/mL,< 0.01 µg/mL,< 0.01 µg/mL,< 0.01 µg/mL,< 0.01 µg/mL,0.4 µg/mL,0.02 µg/mL,< 0.01 µg/mL,< 0.01 µg/mL,0.01 µg/mL,0.8 µg/mL,1.6 µg/mL
Nc1nc(/C(=N/Oc2ccc(Cl)cc2)C(=O)N[C@@H]2C(=O)N3C(C(=O)[O-])=C(C[n+]4ccc5cc(O)c(O)cc5c4)CS[C@H]23)cs1 [Compound III],0.8 µg/mL,< 0.01 µg/mL,0.8 µg/mL,< 0.01 µg/mL,< 0.01 µg/mL,< 0.01 µg/mL,< 0.01 µg/mL,0.1 µg/mL,0.03 µg/mL,< 0.01 µg/mL,0.01 µg/mL,< 0.01 µg/mL,0.4 µg/mL,0.2 µg/mL
"CC(C)(O/N=C(\C(=O)N[C@@H]1C(=O)N2C(C(=O)[O-])=C(C[n+]3ccc4cc(O)c(O)cc4c3)CS[C@H]12)c1csc(N)n1)C(=O)O [Compound A, (6R,7R)-7-[(Z)-2-(2-amino-l,3-thiazol-4-yl)-2-(2-carboxypropyl-2-yloxyimino)acetamide]-3-(6,7-dihydroxy-2-isoquinolinium)methyl-3-cephem-4-carboxylate, reference compound]",6.2 µg/mL,< 0.01 µg/mL,0.02 µg/mL,< 0.01 µg/mL,< 0.01 µg/mL,< 0.01 µg/mL,< 0.01 µg/mL,1.6 µg/mL,< 0.01 µg/mL,< 0.01 µg/mL,< 0.01 µg/mL,< 0.01 µg/mL,0.4 µg/mL,0.2 µg/mL
"Nc1nc(/C(=N/Oc2ccccc2)C(=O)N[C@@H]2C(=O)N3C(C(=O)[O-])=C(C[n+]4cc(C(=O)O)c5cc(O)c(O)cc5c4Cl)CS[C@H]23)cs1 [Compound VII, (6R,7R)-7-[(Z)-2-(2-amino-1,3-thiazol-4-yl)-2-phenoxyiminoacetamide]-3-(l-chloro-4-carboxy-6,7-dihydroxy-2-isoquinolinium)methyl-3-cephem-4-carboxylate]",3.1 µg/mL,0.02 µg/mL,1.6 µg/mL,0.03 µg/mL,0.02 µg/mL,0.03 µg/mL,0.03 µg/mL,0.4 µg/mL,0.1 µg/mL,–,0.03 µg/mL,0.03 µg/mL,1.6 µg/mL,0.8 µg/mL
Nc1nc(/C(=N/Oc2ccc(CC(=O)O)cc2)C(=O)N[C@@H]2C(=O)N3C(C(=O)[O-])=C(C[n+]4ccc5cc(O)c(O)cc5c4)CS[C@H]23)cs1 [Compound V],1.6 µg/mL,0.02 µg/mL,0.05 µg/mL,0.03 µg/mL,< 0.01 µg/mL,< 0.01 µg/mL,0.8 µg/mL,0.8 µg/mL,0.05 µg/mL,0.02 µg/mL,< 0.01 µg/mL,0.02 µg/mL,1.6 µg/mL,1.6 µg/mL
